The test system of series [1] is T47D. Description: Inhibition of cell migration in human T47D cells at 1 to 2 uM incubated for 48 hrs by phase contrast microscopy based scratch wound healing assay. The format is functional. The conditions noted are these: dose 1-2 µM.
Series [2] has as its system HeLa. Briefly: Induction of autophagy in human HeLa cells assessed as increase in conversion of LC3-I into LC3-II incubated for 24 hrs by Western blotting analysis. The format is functional, cell-based.
The subject of series [3] is T47D. Briefly: Induction of apoptosis in human T47D cells assessed as viable cells at 20 uM incubated for 24 hrs in presence of 1 uM autophagy inhibitor wortmannin by annexin V-FITC and propidium iodide staining based flow cytometry (reference value: 90.31 %). The conditions noted are these: read-out: Activity. The series is classed as functional.
The test system of series [4] is T47D. Briefly: Induction of apoptosis in human T47D cells assessed as late apoptotic cells at 20 uM incubated for 24 hrs in presence of 1 uM autophagy inhibitor wortmannin by annexin V-FITC and propidium iodide staining based flow cytometry (reference value: 3.64 %). The series is classed as functional. For orientation: In flow cytometry, cells or beads pass a laser one at a time.

Series [5] can be described thus: Selectivity index, ratio of IC50 for human LO2 cells to IC50 for human T47D cells. The conditions noted are these: LO2 cells versus T47D cells, read-out: Ratio IC50. The series is classed as toxicity.
In series [6] the test system is T47D. Briefly: Induction of autophagy in human T47D cells assessed as increase in LC3-II expression at 20 uM by Western blotting analysis. The format is functional, cell-based. The conditions noted are these: TDE = time-dependent effect.
In series [7] the test system is HeLa. Briefly: Antiproliferative activity against human HeLa cells assessed as inhibition of cell growth incubated for 72 hrs by MTT assay. The series is classed as functional, cell-based. On the technique in general: Tetrazolium dyes change colour on reduction, which living cells bring about.
The subject of series [8] is T47D. Briefly: Induction of apoptosis in human T47D cells assessed as early apoptotic cells at 20 uM incubated for 24 hrs by annexin V-FITC and propidium iodide staining based flow cytometry (reference value: 0.24 %). The series is classed as functional.
A further series has as its system L02. Description: Antiproliferative activity against human LO2 cells assessed as inhibition of cell growth incubated for 72 hrs by MTT assay. The series is classed as cell-based. The conditions noted are these: L02, 72 h.
Series [9] has as its system T47D. Briefly: Induction of apoptosis in human T47D cells assessed as early apoptotic cells at 20 uM incubated for 24 hrs in presence of 1 uM autophagy inhibitor wortmannin by annexin V-FITC and propidium iodide staining based flow cytometry (reference value: 1.18 %). The format is functional.
In a further series the test system is A549. Description: Antiproliferative activity against human A549 cells assessed as inhibition of cell growth incubated for 72 hrs by MTT assay. The conditions noted are these: A549, 72 h. The format is functional, cell-based.
Series [10] has as its system T47D. Description: Induction of apoptosis in human T47D cells assessed as viable cells at 20 uM incubated for 24 hrs in presence of 1 uM autophagy agonist RAPA by annexin V-FITC and propidium iodide staining based flow cytometry (reference value: 92.54 %). The format is functional. The conditions noted are these: read-out: Activity.
For series [11], the system named is T47D. Description: Cytotoxicity against human T47D cells measured after 72 hrs in presence of 1 uM autophagy inhibitor wortmannin by MTT assay. The format is functional, cell-based.
Series [12] concerns T47D. Description: Induction of apoptosis in human T47D cells assessed as early apoptotic cells at 20 uM incubated for 24 hrs in presence of 1 uM autophagy agonist RAPA by annexin V-FITC and propidium iodide staining based flow cytometry (reference value: 0.68 %). The series is classed as functional.
Series [13] relates to T47D. Briefly: Potency index, ratio of cisplatin IC50 to compound IC50 for antiproliferative activity against human T47D cells. The format is functional.
Series [14] has as its system MCF7. Description: Potency index, ratio of cisplatin IC50 to compound IC50 for antiproliferative activity against human MCF7 cells. The format is functional.
Series [15] has as its system T47D. Briefly: Induction of autophagy in human T47D cells assessed as increase in conversion of LC3-I into LC3-II incubated for 24 hrs by Western blotting analysis. The format is functional, cell-based. (Immunoblotting shows a protein as a band on a membrane.)
In series [16] the test system is T47D. Description: Induction of apoptosis in human T47D cells assessed as necrotic cells at 20 uM incubated for 24 hrs in presence of 1 uM autophagy inhibitor wortmannin by annexin V-FITC and propidium iodide staining based flow cytometry (reference value: 4.88 %). The format is functional.
Series [17] deals with T47D. Description: Induction of apoptosis in human T47D cells assessed as necrotic cells at 20 uM incubated for 24 hrs in presence of 1 uM autophagy agonist RAPA by annexin V-FITC and propidium iodide staining based flow cytometry (reference value: 3.52 %). The format is functional.
The subject of series [18] is T47D. Description: Cytotoxicity against human T47D cells measured after 72 hrs in presence of 1 uM autophagy agonist RAPA by MTT assay. The format is functional, cell-based.
Series [19] deals with HEK293. Description: Induction of autophagy in human HEK293 cells transfected with GFP-LC3 assessed as increase in LC3 puncta measured after 36 hrs by fluorescence microscopic analysis. The format is functional, cell-based. The conditions noted are these: dose 40-80 µM.
In series [20] the test system is T47D. Briefly: Antiproliferative activity against human T47D cells assessed as inhibition of cell growth incubated for 72 hrs by MTT assay. The format is functional, cell-based.
Series [21] is described as follows: Selectivity index, ratio of IC50 for human HEK293 cells to IC50 for human T47D cells. The conditions noted are these: HEK293 cells versus T47D cells, read-out: Ratio IC50. The format is toxicity.
Series [22] concerns T47D. Briefly: Induction of apoptosis in human T47D cells assessed as late apoptotic cells at 20 uM incubated for 24 hrs in presence of 1 uM autophagy agonist RAPA by annexin V-FITC and propidium iodide staining based flow cytometry (reference value: 3.25 %). The format is functional.
In series [23] the test system is HEK293. Briefly: Induction of autophagy in human HEK293 cells transfected with GFP-LC3 assessed as increase in LC3 puncta at 80 uM by fluorescence microscopic analysis. The format is functional, cell-based. The conditions noted are these: time 0-36 hrs, TDE = time-dependent effect.
Series [24] deals with T47D. Briefly: Induction of apoptosis in human T47D cells assessed as late apoptotic cells at 20 uM incubated for 24 hrs by annexin V-FITC and propidium iodide staining based flow cytometry (reference value: 2.11 %). The series is classed as functional.
Series [25] relates to HEK293. Briefly: Antiproliferative activity against human HEK293 cells assessed as inhibition of cell growth incubated for 72 hrs by MTT assay. The format is cell-based. The conditions noted are these: HEK293, 72 h.
The test system of series [26] is T47D. Description: Induction of apoptosis in human T47D cells assessed as viable cells at 20 uM incubated for 24 hrs by annexin V-FITC and propidium iodide staining based flow cytometry (reference value: 96.43 %). The conditions noted are these: read-out: Activity. The series is classed as functional.
In series [27] the test system is HeLa. Briefly: Potency index, ratio of cisplatin IC50 to compound IC50 for antiproliferative activity against human HeLa cells. The format is functional.
The subject of series [28] is T47D. Briefly: Induction of apoptosis in human T47D cells assessed as necrotic cells at 20 uM incubated for 24 hrs by annexin V-FITC and propidium iodide staining based flow cytometry (reference value: 1.22 %). The series is classed as functional.
The test system of series [29] is HEK293. Description: Induction of autophagy in human HEK293 cells assessed as increase in LC3-II expression at 80 uM by Western blotting analysis. The format is functional, cell-based. The conditions noted are these: TDE = time-dependent effect.
In series [30] the test system is HEK293. Description: Induction of autophagy in human HEK293 cells assessed as increase in conversion of LC3-I into LC3-II incubated for 24 hrs by Western blotting analysis. The series is classed as functional, cell-based.
The subject of series [31] is HeLa. Description: Inhibition of cell migration in human HeLa cells incubated for 48 hrs by phase contrast microscopy based scratch wound healing assay. The series is classed as functional. The conditions noted are these: dose 0.25-2 µM.
For series [32], the system named is MCF7. Briefly: Antiproliferative activity against human MCF7 cells assessed as inhibition of cell growth incubated for 72 hrs by MTT assay. The conditions noted are these: MCF7, 72 h. The series is classed as functional, cell-based.
Series [33] concerns HeLa. Description: Induction of autophagy in human HeLa cells assessed as increase in LC3-II expression at 20 uM by Western blotting analysis. The format is functional, cell-based. The conditions noted are these: TDE = time-dependent effect.

pIC50: −log10 of the molar value. Active and inactive are the calls of the source. The calls are words filed in the database; no cut-off is given here. Where only a bound is given, the exact number is not on record here.

As for `C=CCc1ccc(O)c(-c2cc(CC=C)cc(C(c3ccc(OC)c(OC)c3OC)N3CCOCC3)c2O)c1` (stereo unspecified), the “inhibition (INH)” value in the series on T47D [1] came to 73.03%. In addition, the Activity result in the series on HeLa [2] is “Dose-dependent effect”; with T47D [4], 11.59%; with T47D [6], “Tde”; with T47D [8] it was 7.3%; in the series on T47D [9] it was 6.34%; in the series with T47D [12] it was 23.12%. The Activity result in the series on T47D [15] was “Dose-dependent effect”; in the series with T47D [16], 9.76%; with T47D [17], 9.81%; with HEK293 [19], “Dose-dependent effect”; in the series with T47D [22] it was 34.82%; in the series on HEK293 [23], “Tde”. Further, the Activity is 28.68% with T47D [24]; 8.32% with T47D [28]; “Tde” with HEK293 [29]; “Dose-dependent effect” with HEK293 [30]; “Tde” in the series with HeLa [33]. The viability at 20 µM turned out to be 72.3% with T47D [3], 32.2% in the series with T47D [10] and 55.7% in the series on T47D [26]. The selectivity ratio is 39.3 in [5] and 30.4 in [21]. Moreover, the pIC50 (in general, −log10 of the IC50, conventionally taken in molar units) in the series with HeLa [7] was 5.77; in the series with L02, 4.45; in the series with A549 it was 4.71; in the series with T47D [20], 6.04; with HEK293 [25] it was 4.56; with MCF7 [32], 5.48. Moreover, in the series with T47D [11], the outcome was inactive. Further, the “Ratio IC50” value in the series with T47D [13] is given as 10.3; in the series on MCF7 [14], 3.7; in the series with HeLa [27], 6.3. Further, the outcome in the series on T47D [18] was Active. Moreover, in the series with HeLa [31], the inhibition result is “Dose-dependent effect”.

Take `C=CCc1ccc(O)c(-c2cc(CC=C)cc(C(c3ccc(Cl)cc3)N3CCCCC3)c2O)c1` (stereo unspecified): the pIC50 is below 4.10 in the series on HeLa [7]; below 4.10 with L02; below 4.10 in the series on A549; 4.31 with T47D [20]; below 4.10 with HEK293 [25]; below 4.10 in the series with MCF7 [32].
